# Experimental data: patent publication US20240270699A1, “COMPOUNDS HAVING N-ARYLPYRIMIDIN-2-AMINE DERIVATIVES AS THERAPEUTIC AGENTS” (Lomond Therapeutics, Inc., priority 2021, published 2024)
# Read-outs that look alike come from different tables or passages of the source.
# How the values were obtained:
# [1] = Pharmacokinetic (PK) study in mice; type: in vivo; conditions: mouse, plasma, male CD-1 mice, PO 10 mg/kg, solution, vs IV 2 mg/kg, read-out: Fabs, % (percent bioavailability)
# [2] = test system: Jurkat cells; test: IL-2 release Jurkat assay (anti-CD3/anti-CD28 stimulation, IL-2 ELISA); type: cell-based, human; conditions: activation with 400 ng/mL aCD3 + 400 ng/mL aCD28, 24 hours
# [3] = target: T1, recombinant HPK1 protein (Homo sapiens, UniProt Q92918); test: Primary assay of HPK1 enzymatic activity inhibition (ADP-Glo luminescence); type: biochemical; conditions: recombinant HPK1, MBP substrate, 1 hour at room temperature
# T1 construct: purchased Promega V6398
# T1 sequence (Q92918 1-346 limits assumed): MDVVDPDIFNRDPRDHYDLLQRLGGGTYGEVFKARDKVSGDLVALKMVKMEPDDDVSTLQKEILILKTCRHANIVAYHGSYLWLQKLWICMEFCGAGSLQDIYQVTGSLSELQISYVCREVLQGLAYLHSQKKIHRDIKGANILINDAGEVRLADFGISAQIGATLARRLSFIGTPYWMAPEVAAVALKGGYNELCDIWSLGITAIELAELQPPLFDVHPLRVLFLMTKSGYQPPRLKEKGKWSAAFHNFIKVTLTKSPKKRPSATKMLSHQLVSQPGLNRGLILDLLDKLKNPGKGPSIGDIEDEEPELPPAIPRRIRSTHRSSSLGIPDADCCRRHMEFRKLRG
# [4] = vehicle 80% PEG400, 10% TPGS and 10% ethanol
# [5] = Table C: Jurkat, 6 μM of tested compounds, stimulated vehicle = A
# [6] = Table E: Jurkat, 1.5 μM of tested compounds
# [7] = Table D: Jurkat, 6 μM of tested compounds, stimulated vehicle = B
# [8] = Table B: Jurkat, 1.5 μM of tested compounds
SMILES,"bioavailability [1, 4]",IC50 [3],"IL-2, pg/mL stimulated [2, 8]",further results
"Cc1noc(-c2cnc(Nc3ccc(S(C)(=O)=O)c(C)c3)nc2N[C@H](CO)c2ccccc2)n1 [Compound 252, (2S)-2-{[2-{[3-methyl-4-(methylsulfonyl)phenyl]amino}-5-(3-methyl-1,2,4-oxadiazol-5-yl)pyrimidin-4-yl]amino}-2-phenylethanol]",19.9%,50 to 200 nM,–,"IL-2, pg/mL stimulated [2, 5]: B (50 pg/mL≤IL-2<100 pg/mL)"
"O=S1(=O)CCCc2cc(Nc3ncc(-c4nnco4)c(N[C@H](CO)c4ccccc4)n3)ccc21 [Compound 228, (2S)-2-[[2-[(1,1-dioxo-3,4-dihydro-2H-thiochromen-6-yl)amino]-5-(1,3,4-oxadiazol-2-yl)pyrimidin-4-yl]amino]-2-phenyl-ethanol]",11.4%,< 50 nM,–,"IL-2, pg/mL stimulated [2, 6]: B (50 pg/mL≤IL-2<100 pg/mL)"
"O=C1CCc2cc(Nc3ncc(-c4nnco4)c(N[C@H](CO)c4ccccc4)n3)ccc2N1 [Compound 19, 6-[[4-[[(1S)-2-hydroxy-1-phenyl-ethyl]amino]-5-(1,3,4-oxadiazol-2-yl)pyrimidin-2-yl]amino]-3,4-dihydro-1H-quinolin-2-one]",16.3%,< 50 nM,B (5.0 pg/mL≤IL-2<25.0 pg/mL),–
"Cc1noc(-c2cnc(Nc3ccc4c(c3)CCC(=O)N4)nc2N[C@H](CO)c2ccccc2)n1 [Compound 86, 6-[[4-[[(1S)-2-hydroxy-1-phenyl-ethyl]amino]-5-(3-methyl-1,2,4-oxadiazol-5-yl)pyrimidin-2-yl]amino]-3,4-dihydro-1H-quinolin-2-one]",83.6%,< 50 nM,C (25.0 pg/mL≤IL-2<35.0 pg/mL),–
"CC(C)NC(=O)c1cnc(Nc2ccc3c(c2)CCN(C)C3=O)nc1N[C@H](CO)c1ccccc1 [Compound 212, 4-{[(1S)-2-hydroxy-1-phenylethyl]amino}-2-[(2-methyl-1-oxo-1,2,3,4-tetrahydroisoquinolin-6-yl)amino]-N-(propan-2-yl)pyrimidine-5-carboxamide]",–,50 to 200 nM,C (25.0 pg/mL≤IL-2<35.0 pg/mL),–
"CNC(=O)c1cnc(Nc2ccc(S(C)(=O)=O)c(F)c2)nc1N[C@H](CO)c1ccccc1 [Compound 105, 2-{[3-fluoro-4-(methylsulfonyl)phenyl]amino}-4-{[(1S)-2-hydroxy-1-phenylethyl]amino}-N-methylpyrimidine-5-carboxamide]",–,50 to 200 nM,C (25.0 pg/mL≤IL-2<35.0 pg/mL),–
"CCOC(=O)c1cnc(Nc2ccc(S(=O)(=O)CC)cc2)nc1N[C@H](CO)c1ccccc1 [Compound 168, Ethyl 2-{[4-(ethylsulfonyl)phenyl]amino}-4-{[(1S)-2-hydroxy-1-phenylethyl]amino}pyrimidine-5-carboxylate]",–,50 to 200 nM,–,"IL-2, pg/mL stimulated [2, 5]: A (IL-2<50 pg/mL)"
"CCNC(=O)c1cnc(Nc2ccc3c(c2)CCN(C)C3=O)nc1N[C@H](CO)c1ccccc1 [Compound 119, N-ethyl-4-{[(1S)-2-hydroxy-1-phenylethyl]amino}-2-[(2-methyl-1-oxo-1,2,3,4-tetrahydroisoquinolin-6-yl)amino]pyrimidine-5-carboxamide]",–,< 50 nM,D (35.0 pg/mL≤IL-2),–
"CS(=O)(=O)c1ccc(Nc2ncc(-c3nnco3)c(N[C@H](CO)c3ccccc3)n2)cc1F [Compound 161, (2S)-2-{[2-{[3-fluoro-4-(methylsulfonyl)phenyl]amino}-5-(1,3,4-oxadiazol-2-yl)pyrimidin-4-yl]amino}-2-phenylethanol]",–,< 50 nM,–,"bioavailability ([1]; vehicle 20% HP-b-CD): 95.1%; IL-2, pg/mL stimulated [2, 5]: C (100 pg/mL≤IL-2<150 pg/mL)"

# Now from value to compound, other results behind:
"bioavailability [1, 4]",IC50 [3],SMILES,"IL-2, pg/mL stimulated [2, 8]",further results
16.3%,< 50 nM,"Cc1noc(-c2cnc(Nc3ccc4c(c3)CCNC4=O)nc2N[C@H](CO)c2ccccc2)n1 [Compound 558, 6-[[4-[[(1S)-2-hydroxy-1-phenyl-ethyl]amino]-5-(3-methyl-1,2,4-oxadiazol-5-yl)pyrimidin-2-yl]amino]-3,4-dihydro-2H-isoquinolin-1-one]",–,"IL-2, pg/mL stimulated [2, 7]: D (150 pg/mL≤IL-2)"
9.2%,< 50 nM,"O=C1NCCc2cc(Nc3ncc(-c4nnco4)c(N[C@H](CO)c4ccccc4)n3)ccc21 [Compound 563, 6-[[4-[[(1S)-2-hydroxy-1-phenyl-ethyl]amino]-5-(1,3,4-oxadiazol-2-yl)pyrimidin-2-yl]amino]-3,4-dihydro-2H-isoquinolin-1-one]",–,–
76.5%,< 50 nM,"Cc1noc(-c2cnc(Nc3ccc(S(C)(=O)=O)c(F)c3)nc2N[C@H](CO)c2ccccc2)n1 [Compound 270, (2S)-2-{[2-{[3-fluoro-4-(methylsulfonyl)phenyl]amino}-5-(3-methyl-1,2,4-oxadiazol-5-yl)pyrimidin-4-yl]amino}-2-phenylethanol]",–,"IL-2, pg/mL stimulated [2, 5]: A (IL-2<50 pg/mL)"
8%,< 50 nM,"Cc1noc(-c2cnc(Nc3ccc4c(c3)CNC4=O)nc2N[C@H](CO)c2ccccc2)n1 [Compound 571, 5-[[4-[[(1S)-2-hydroxy-1-phenyl-ethyl]amino]-5-(3-methyl-1,2,4-oxadiazol-5-yl)pyrimidin-2-yl]amino]isoindolin-1-one]",C (25.0 pg/mL≤IL-2<35.0 pg/mL),–
–,< 50 nM,"Cn1cc(-c2cnc(Nc3ccc4c(c3)CCNC4=O)nc2N[C@H](CO)c2ccccc2)cn1 [Compound 584, 6-[[4-[[(1S)-2-hydroxy-1-phenyl-ethyl]amino]-5-(1-methylpyrazol-4-yl)pyrimidin-2-yl]amino]-3,4-dihydro-2H-isoquinolin-1-one]",–,"IL-2, pg/mL stimulated ([2]; Table F: Jurkat, 1.0 μM of tested compounds): A (IL-2<50 pg/mL)"
–,< 50 nM,"CCOC(=O)c1cnc(Nc2ccc3c(c2)CCCNC3=O)nc1N[C@H](CO)c1ccccc1 [Compound 566, ethyl 4-[[(1S)-2-hydroxy-1-phenyl-ethyl]amino]-2-[(1-oxo-2,3,4,5-tetrahydro-2-benzazepin-7-yl)amino]pyrimidine-5-carboxylate]",–,"IL-2, pg/mL stimulated [2, 6]: D (150 pg/mL≤IL-2)"
–,200 to 500 nM,"Cc1cc(Nc2ncc(C(=O)NC3CCCC3)c(N[C@H](CO)c3ccccc3)n2)ccc1S(C)(=O)=O [Compound 434, N-cyclopentyl-4-{[(1S)-2-hydroxy-1-phenylethyl]amino}-2-{[3-methyl-4-(methylsulfonyl)phenyl]amino}pyrimidine-5-carboxamide]",B (5.0 pg/mL≤IL-2<25.0 pg/mL),–
–,200 to 500 nM,"CCOC(=O)c1cnc(Nc2ccc(S(=O)(=O)C(C)C)cc2)nc1N[C@H](CO)c1ccccc1 [Compound 274, Ethyl 4-{[(1S)-2-hydroxy-1-phenylethyl]amino}-2-{[4-(propan-2-ylsulfonyl)phenyl]amino}pyrimidine-5-carboxylate]",–,"IL-2, pg/mL stimulated [2, 5]: B (50 pg/mL≤IL-2<100 pg/mL)"
–,< 50 nM,"Cc1noc(-c2cnc(Nc3ccc4c(c3)CC(C)(C)NC4=O)nc2N[C@H](CO)c2ccccc2)n1 [Compound 578, 6-[[4-[[(1S)-2-hydroxy-1-phenyl-ethyl]amino]-5-(3-methyl-1,2,4-oxadiazol-5-yl)pyrimidin-2-yl]amino]-3,3-dimethyl-2,4-dihydroisoquinolin-1-one]",–,"IL-2, pg/mL stimulated ([2]; Table G: Jurkat, 1.0 μM of tested compounds): C (100 pg/mL≤IL-2<150 pg/mL)"
–,< 50 nM,"CS(=O)(=O)c1cnc(Nc2ccc3c(c2)CCNC3=O)nc1N[C@H](CO)c1ccccc1 [Compound 564, 6-[[4-[[(1S)-2-hydroxy-1-phenyl-ethyl]amino]-5-methylsulfonyl-pyrimidin-2-yl]amino]-3,4-dihydro-2H-isoquinolin-1-one]",B (5.0 pg/mL≤IL-2<25.0 pg/mL),–
–,< 50 nM,"CCOC(=O)c1cnc(Nc2ccc(C(N)=O)c(Cl)c2)nc1N[C@H](CO)c1ccccc1 [Compound 559, Ethyl 2-(4-carbamoyl-3-chloro-anilino)-4-[[(1S)-2-hydroxy-1-phenyl-ethyl]amino]pyrimidine-5-carboxylate]",–,"IL-2, pg/mL stimulated [2, 7]: D (150 pg/mL≤IL-2)"
